Results from patent US20110296540A1, “ASSAY FOR SCREENING ANTIDEPRESSANTS” (priority 2008, published 2011).

Columns and labels:
[1] = tested on: SvEv129 mice; assay: Novelty-suppressed feeding test, sham or x-irradiated animals; type: in vivo; details: 28 d of fluoxetine; sham animals
Method: Novelty-suppressed feeding test. […] The floor was covered with ˜2 cm of wooden bedding. Twenty-four hours before behavioral testing, animals were deprived of all food in the home cage. At the time of testing, two food pellets were placed on a piece of round filter paper (12 cm diameter) positioned in the center of the box. The test began immediately after the animal was placed in a corner of the box. The latency to approach the pellet and begin feeding was recorded (maximum time, 5 min). Immediately afterward, the animal was transferred back to its home cage and the amount of food consumed in 5 min was measured. Each mouse was weighed before food deprivation and before testing to assess the percentage of body weight lost.
In the NSF paradigm, conflicting motivations are produced by presenting a food-deprived animal with a reward (food) within the context of a novel, aversive environment. The NSF test is among the few behavioral paradigms that can differentiate chronic versus subchronic responses to antidepressant treatments, using the latency to begin eating as an index of antidepressant/anxiety-like behavior.

[2] = tested on: β-arrestin 2 knock out mice; assay: Novelty Suppressed Feeding paradigm in β-arrestin 2 knock out mice and littermates; type: in vivo
Source text: Twenty-four hours prior to behavioral testing, all food was removed from the home cage. At the time of testing, a single pellet of food (regular chow) was placed on a white paper platform positioned in the center of the box.

[3] = tested on: doublecortin positive cells; assay: Doublecortin (DCX) labeling for maturation index study, corticosterone model; type: in vivo, mice
Source text: The secondary antibody was biotinylated donkey anti-goat (1:500) (Jackson ImmunoResearch, West Grove, Pa.) in PBS for 2 hr at room temperature. Sections were developed using avidin-biotin complex (Vector, USA) and DAB kit.

[4] = tested on: MPP/DG synaptic connection; assay: Field electrophysiological recordings on hippocampal slices (MPP/DG), sham or x-irradiated animals; type: in vivo, mice
Method: Electrophysiology. Brains were collected from animals after deep anesthesia with halothane and decapitation, and transverse hippocampal slices (400 μm) were prepared using a vibratome. […] Slices were allowed to equilibrate for 2 h before positioning the electrodes and beginning stimulation.
To record from the DG, the medial perforant path (MPP) was stimulated using a World Precision Instruments (Sarasota, Fla.) stimulation isolation unit and a bipolar tungsten electrode. Evoked potentials were recorded in the molecular layer above the upper blade of the DG using a glass capillary microelectrode filled with artificial CSF (tip resistance of 1-3 MΩ). […] Input-output curves were obtained after 10 min of stable recordings. […] After 15 min of stable baseline response to test stimulation (once every 20 s), the ability to elicit LTP was assessed. […] Responses were recorded every 20 for 60 min after LTP induction.

[5] = tested on: β-arrestin 2 knock out mice; assay: Forced Swim Test in β-arrestin 2 knock out mice and littermates; type: in vivo; details: relative to the control group
Method: The forced swim test procedure was modified relative to the traditional method, so as to enhance sensitivity for detecting the putative antidepressant activity of drugs (Porsolt et al., 1977). The modifications consist of an increase in water depth (Dulawa et al., 2004). Mice were placed into plastic buckets (19 cm diameter, 23 cm deep, filled with 23-25° C. water) and videotaped for 6 min to score immobility duration.

[6] = tested on: newborn granule cells; assay: Survival and maturation of newborn granule cells (BrdU/DCX/NeuN triple staining); type: in vivo, mice
Method: Immunohistochemistry and confocal imaging. Mice were anesthetized with ketamine/xylazine (100 and 7 mg/kg, respectively) and transcardially perfused (cold saline, followed by 4% cold paraformaldehyde in PBS). […] Serial sections were cut through the entire hippocampus (Franklin and Paxinos, 1997) using a cryostat and stored in PBS. Immunohistochemistry was performed in the following steps: 2 h incubation in 1:1 formamide/2×SSC at 65° C., 5 min rinse in 2×SSC, 30 min incubation in 2N HCl at 37° C., and 10 min rinse in 0.1M boric acid, pH 8.5, 2 h incubation in 0.1M PBS with 0.3% Triton X-100, and 5% normal donkey serum. Sections were then incubated overnight at 4° C. in primary antibodies for doublecortin (goat; 1:500; Santa Cruz Biotechnology, Santa Cruz, Calif.), bromodeoxyuridine (BrdU; rat; 1:100; Serotec, Oxford, UK), and neuronal-specific nuclear protein (NeuN) (mouse; 1:500; Chemicon, Temecula, Calif.). Biotinylated or fluorescent secondary antibodies were used. All secondary antibodies were purchased from Jackson ImmunoResearch (West Grove, Pa.). DCX staining for Sholl analysis was done as follows: sections were rinsed in PBS, treated with 1% H2O2 in 1:1 PBS and methanol for 15 min to quench endogenous peroxidase activity (and to enhance dendritic staining), incubated in 10% normal donkey serum and 0.3% Triton X-100 for 30 min, and then incubated overnight at 4° C. in primary antibody for doublecortin. After secondary antibody incubation, sections were developed using Vector ABC kit and DAB kit. Bright-field images were taken with a Zeiss (Oberkochen, Germany) Axioplan-2 upright microscope. Stereological procedure was used to quantify labeled cells (Malberg et al., 2000 ? ). All cell counting for triple-stained sections were done using a Zeiss LSM 510 META confocal microscope.
As depicted in FIG. 4A, BrdU (75 mg/kg) was given four times over 8 h on day 0 to achieve maximum labeling of proliferating progenitors over a restricted time window. […] Hippocampal sections were triple stained for BrdU, DCX, and NeuN (FIG. 4B,C). Image acquisition and cell counting were performed using a Zeiss LSM META 510 confocal microscopy.

[7] = tested on: C57BL/6Ntac mice; assay: Forced Swim Test, chronic corticosterone model; type: in vivo; details: for immobility duration (FST): mean±SEM
[8] = after 3 weeks of fluoxetine, mean±SEM

In the case of CNCCC(Oc1ccc(C(F)(F)F)cc1)c1ccccc1 (stereo not shown) [fluoxetine], the “latency to feed (NSF)” value [1] is reported as “reduced latency to feed”, the “latency to feed (NSF)” value ([2]; mutant (β-arrestin 2 knock out) mice) is reported as “had no effect” and the “latency to feed (NSF)” value ([2]; wild-type mice) is reported as “significantly decreased”. For the same compound, the “number of doublecortin positive cells with tertiary dendrites” value ([3]; chronic fluoxetine, control animals) was “increased”, the “effect of fluoxetine on the number of doublecortin positive cells and their dendritic morphology” value ([3]; in the presence of corticosterone, compared with controls) was “even more pronounced” and the “input-output functions in the MPP/DG” value ([4]; chronic fluoxetine) was “significantly increased”. The “paired-pulse depression (50 ms interstimulus interval)” value ([4]; chronic fluoxetine, one-third of maximal response and 60 μA) was “suppressed”, the ACSF-LTP ([4]; chronic fluoxetine, sham animals) was “enhanced” and the LTP ([4]; chronic fluoxetine, x-irradiated animals) was “completely blocked”. For the same compound, the “input-output functions in the MPP/DG” value ([4]; subchronic fluoxetine) was “significantly increased”, the ACSF-LTP ([4]; subchronic fluoxetine, both sham and x-irradiated animals) was “suppression” and the “immobility (FST)” value ([5]; wild-type mice) was “decrease in immobility”. The “immobility (FST)” value ([5]; β-arrestin 2 knockout mice) was “decrease in immobility”, the “number of BrdU+NeuN+DCX+ cells” value ([6]; 3 and 4 weeks of fluoxetine) was “did not have an effect” and the “number of cells expressing both BrdU and NeuN” value ([6]; 3 and 4 weeks of fluoxetine) was “also increased”. For the same compound, the “pool of mature BrdU+NeuN+DCX− cells” value ([6]; 3 and 4 weeks of fluoxetine) was “significantly increased”, the “total number of BrdU+ cells in the GCL (survival)” value ([6]; 3 and 4 weeks of fluoxetine begun 24 h after BrdU) was “significantly increased” and the “proportion of BrdU cells that are NeuN+” value ([6]; 5 d of fluoxetine) was “did not change”. The “transition of BrdU immature cells from DCX+NeuN− stage to DCX+NeuN+ stage” value ([6]; 5 d of fluoxetine) was “did not change”, the “proportion of BrdU+NeuN+ cells that ceased to express DCX” value [6, 8] was 39.24±1.78 and the “proportion of BrdU+NeuN+ cells that express DCX” value [6, 8] was 51.64±3.71%. The “survival of immature neurons as measured by BrdU” value ([6]; subchronic, 5 d) was “did not change”, the “immobility duration (FST)” value ([7]; corticosterone treated animals, alone or with antidepressant) was 311.4 s and the “immobility duration (FST)” value ([7]; non-corticosterone treated animals) was 302.9 s. The “duration of immobility (FST), effect” value ([7]; two-way ANOVA, corticosterone 7 weeks, antidepressants last 3 weeks) was “decreased”.
